Data from publication PMC5218480 (PLoS ONE, 2017).

Tested on: MV-4-11 cells
Assay: Gene expression microarray analysis (Affymetrix PrimeView) and GSEA
Type: cell-based, human
Design: RFU PODN (11730768_x_at) / Fold change /veh PODN (11730768_x_at) / RFU LINC00158 (11744669_a_at) / Fold change /veh LINC00158 (11744669_a_at) / RFU DUSP10 (11751237_a_at) / Fold change /veh DUSP10 (11751237_a_at) / RFU ID3 (11757404_x_at) / Fold change /veh ID3 (11757404_x_at) / RFU PLEKHG5 (11737974_s_at) / Fold change /veh PLEKHG5 (11737974_s_at) / RFU LRRC4B (11730491_at) / Fold change /veh LRRC4B (11730491_at) / RFU GIMAP4 (11747438_a_at) / Fold change /veh GIMAP4 (11747438_a_at) / RFU KRT8 (11758183_x_at) / Fold change /veh KRT8 (11758183_x_at) / RFU CNN1 (11734310_a_at) / Fold change /veh CNN1 (11734310_a_at) / RFU VPS37D (11726825_at) / Fold change /veh VPS37D (11726825_at) / RFU C10orf10 (11716522_x_at) / Fold change /veh C10orf10 (11716522_x_at) / RFU KIR2DL2 /// KIR2DL4 /// KIR2DL5A /// KIR2DL5B /// KIR2DS1 /// KIR2DS2 /// KIR2DS3 /// KIR2DS4 /// KIR3DL3 /// KIR3DL3 /// KIR3DS1 (11738374_at) / Fold change /veh KIR2DL2 /// KIR2DL4 /// KIR2DL5A /// KIR2DL5B /// KIR2DS1 /// KIR2DS2 /// KIR2DS3 /// KIR2DS4 /// KIR3DL3 /// KIR3DL3 /// KIR3DS1 (11738374_at) / RFU C1QL1 (11718748_at) / Fold change /veh C1QL1 (11718748_at) / RFU TMPRSS4 (11747572_a_at) / Fold change /veh TMPRSS4 (11747572_a_at) / RFU HAMP (11756126_x_at) / Fold change /veh HAMP (11756126_x_at) / RFU RNFT2 (11725882_a_at) / Fold change /veh RNFT2 (11725882_a_at) / RFU NR4A2 (11747474_a_at) / Fold change /veh NR4A2 (11747474_a_at) / RFU ABCC12 (11746883_a_at) / Fold change /veh ABCC12 (11746883_a_at) / RFU TMEM136 (11760407_x_at) / Fold change /veh TMEM136 (11760407_x_at) / RFU CLDN22 /// WWC2 (11732394_at) / Fold change /veh CLDN22 /// WWC2 (11732394_at) / RFU HLA-DPB1 (11760878_x_at) / Fold change /veh HLA-DPB1 (11760878_x_at) / RFU SPINT1 (11716480_a_at) / Fold change /veh SPINT1 (11716480_a_at) / RFU GAP43 (11754022_s_at) / Fold change /veh GAP43 (11754022_s_at) / RFU A4GNT (11735810_at) / Fold change /veh A4GNT (11735810_at) / RFU PRB3 (11715151_x_at) / Fold change /veh PRB3 (11715151_x_at) / RFU TUBB4B (11761932_at) / Fold change /veh TUBB4B (11761932_at) / RFU CAPN14 (11732068_a_at) / Fold change /veh CAPN14 (11732068_a_at) / RFU TMCC2 (11721928_a_at) / Fold change /veh TMCC2 (11721928_a_at) / RFU IRGQ (11745062_a_at) / Fold change /veh IRGQ (11745062_a_at) / RFU FAM174B (11720279_a_at) / Fold change /veh FAM174B (11720279_a_at) / RFU TMPRSS4 (11748680_a_at) / Fold change /veh TMPRSS4 (11748680_a_at) / RFU FAM212B (11763350_a_at) / Fold change /veh FAM212B (11763350_a_at) / RFU PLEKHG5 (11743358_a_at) / Fold change /veh PLEKHG5 (11743358_a_at) / RFU ZSCAN30 (11745921_a_at) / Fold change /veh ZSCAN30 (11745921_a_at) / RFU CMKLR1 (11741424_a_at) / Fold change /veh CMKLR1 (11741424_a_at) / RFU LOC101060620 /// MAPK8IP1 (11723275_at) / Fold change /veh LOC101060620 /// MAPK8IP1 (11723275_at) / RFU SPTSSB (11747773_x_at) / Fold change /veh SPTSSB (11747773_x_at) / RFU PRSS12 (11739890_at) / Fold change /veh PRSS12 (11739890_at) / RFU BIN1 (11741810_x_at) / Fold change /veh BIN1 (11741810_x_at) / RFU WNT11 (11732464_a_at) / Fold change /veh WNT11 (11732464_a_at) / RFU C10orf10 (11716521_a_at) / Fold change /veh C10orf10 (11716521_a_at) / RFU C5orf56 (11738089_at) / Fold change /veh C5orf56 (11738089_at) / RFU CYB561 (11721691_x_at) / Fold change /veh CYB561 (11721691_x_at) / RFU ANKRD19P (11752326_a_at) / Fold change /veh ANKRD19P (11752326_a_at) / RFU OR2T12 /// OR2T33 /// OR2T8 (11738714_s_at) / Fold change /veh OR2T12 /// OR2T33 /// OR2T8 (11738714_s_at) / RFU VCAN (11748164_a_at) / Fold change /veh VCAN (11748164_a_at) / RFU JSRP1 (11732532_at) / Fold change /veh JSRP1 (11732532_at) / RFU KRTAP10-11 (11738290_x_at) / Fold change /veh KRTAP10-11 (11738290_x_at) / RFU MYO3A (11730013_a_at) / Fold change /veh MYO3A (11730013_a_at) / RFU EBF3 (11725865_a_at) / Fold change /veh EBF3 (11725865_a_at) / RFU CAMK2N1 (11719241_x_at) / Fold change /veh CAMK2N1 (11719241_x_at) / RFU C5orf56 (11738088_a_at) / Fold change /veh C5orf56 (11738088_a_at) / RFU OLFML3 (11715873_a_at) / Fold change /veh OLFML3 (11715873_a_at) / RFU LOC100653217 /// NTM (11731650_a_at) / Fold change /veh LOC100653217 /// NTM (11731650_a_at) / RFU MAPK11 (11762145_a_at) / Fold change /veh MAPK11 (11762145_a_at) / RFU FIZ1 (11724087_x_at) / Fold change /veh FIZ1 (11724087_x_at) / RFU OASL (11726364_x_at) / Fold change /veh OASL (11726364_x_at) / RFU SOX15 (11748057_x_at) / Fold change /veh SOX15 (11748057_x_at) / RFU CD79A (11719716_a_at) / Fold change /veh CD79A (11719716_a_at) / RFU HIST1H1D (11736915_at) / Fold change /veh HIST1H1D (11736915_at) / RFU CASKIN2 (11723855_a_at) / Fold change /veh CASKIN2 (11723855_a_at) / RFU LOC730098 (11760151_x_at) / Fold change /veh LOC730098 (11760151_x_at) / RFU OR4N2 (11742367_at) / Fold change /veh OR4N2 (11742367_at) / RFU PRRT2 (11749266_a_at) / Fold change /veh PRRT2 (11749266_a_at) / RFU SNX32 (11753110_a_at) / Fold change /veh SNX32 (11753110_a_at) / RFU CDHR5 (11726645_a_at) / Fold change /veh CDHR5 (11726645_a_at) / RFU RCAN1 (11760418_a_at) / Fold change /veh RCAN1 (11760418_a_at) / RFU FAM167A (11723789_a_at) / Fold change /veh FAM167A (11723789_a_at) / RFU FAM26E (11764081_at) / Fold change /veh FAM26E (11764081_at) / RFU ISYNA1 (11749810_s_at) / Fold change /veh ISYNA1 (11749810_s_at) / RFU ACY1 (11761880_at) / Fold change /veh ACY1 (11761880_at) / RFU 11764098_at / Fold change /veh 11764098_at / RFU SAMD14 (11745864_x_at) / Fold change /veh SAMD14 (11745864_x_at) / RFU NPB (11741838_a_at) / Fold change /veh NPB (11741838_a_at) / RFU TMPRSS6 (11731388_a_at) / Fold change /veh TMPRSS6 (11731388_a_at) / RFU KRTAP10-2 (11738614_at) / Fold change /veh KRTAP10-2 (11738614_at) / RFU ARHGAP8 /// PRR5-ARHGAP8 (11727945_x_at) / Fold change /veh ARHGAP8 /// PRR5-ARHGAP8 (11727945_x_at) / RFU KRTAP5-7 /// NADSYN1 (11734609_at) / Fold change /veh KRTAP5-7 /// NADSYN1 (11734609_at) / RFU RASL12 (11751679_a_at) / Fold change /veh RASL12 (11751679_a_at) / RFU CDKN2B (11736163_a_at) / Fold change /veh CDKN2B (11736163_a_at) / RFU PRF1 (11729649_at) / Fold change /veh PRF1 (11729649_at) / RFU, ZNF638 /// ZNF638-IT1 / Fold change vs veh, ZNF638 /// ZNF638-IT1 / RFU, PANK3 / Fold change vs veh, PANK3 / RFU, SH3YL1 / Fold change vs veh, SH3YL1 / RFU, ZEB2 / Fold change vs veh, ZEB2 / RFU, NRIP1 / Fold change vs veh, NRIP1 / RFU, PTTG1IP / Fold change vs veh, PTTG1IP / RFU, CAPN2 / Fold change vs veh, CAPN2 / RFU, MED14 / Fold change vs veh, MED14 / RFU, SNORA58 / Fold change vs veh, SNORA58 / RFU, C1orf63 / Fold change vs veh, C1orf63 / RFU, LRRFIP1 / Fold change vs veh, LRRFIP1 / RFU, NDUFAF7 / Fold change vs veh, NDUFAF7 / RFU, SLC12A2 / Fold change vs veh, SLC12A2 / RFU, IBTK / Fold change vs veh, IBTK / RFU, ESF1 / Fold change vs veh, ESF1 / Fold change vs veh, TMEM50B / RFU, TAOK1 / Fold change vs veh, TAOK1 / RFU, ACBD3 / Fold change vs veh, ACBD3 / RFU, TMA16 / Fold change vs veh, TMA16 / RFU, RWDD3 / Fold change vs veh, RWDD3 / RFU, BCAT1 / Fold change vs veh, BCAT1 / RFU, EDEM3 / Fold change vs veh, EDEM3 / RFU, TMEM33 / Fold change vs veh, TMEM33 / RFU, WDR75 / Fold change vs veh, WDR75 / RFU, AHCTF1 / Fold change vs veh, AHCTF1 / RFU, TFRC / Fold change vs veh, TFRC / RFU, ZDHHC17 / Fold change vs veh, ZDHHC17 / RFU, NOM1 / Fold change vs veh, NOM1 / RFU, ARL8B / Fold change vs veh, ARL8B / RFU, ZBTB11 / Fold change vs veh, ZBTB11 / RFU, TAMM41 / Fold change vs veh, TAMM41 / RFU, KIAA1704 /// LOC100996395 / Fold change vs veh, KIAA1704 /// LOC100996395 / RFU, ING1 / Fold change vs veh, ING1 / RFU, TRMT61B / Fold change vs veh, TRMT61B / RFU, FUBP3 / Fold change vs veh, FUBP3 / RFU, TP53 / Fold change vs veh, TP53 / RFU, TNKS2 / Fold change vs veh, TNKS2 / RFU, ZFP14 / Fold change vs veh, ZFP14 / RFU, ACTR2 / Fold change vs veh, ACTR2 / RFU, PPP3R1 / Fold change vs veh, PPP3R1 / RFU, PIK3R1 / Fold change vs veh, PIK3R1 / RFU, HNRNPA1 / Fold change vs veh, HNRNPA1 / RFU, RNF170 / Fold change vs veh, RNF170 / RFU, ZNF28 / Fold change vs veh, ZNF28 / RFU, RNGTT / Fold change vs veh, RNGTT / RFU, OGT / Fold change vs veh, OGT / RFU, BRD1 / Fold change vs veh, BRD1 / RFU, MARS / Fold change vs veh, MARS / RFU, ZNF655 / Fold change vs veh, ZNF655 / RFU, FAHD1 / Fold change vs veh, FAHD1 / RFU, BDP1 / Fold change vs veh, BDP1 / RFU, LRRCC1 / Fold change vs veh, LRRCC1 / RFU, ARID1A / Fold change vs veh, ARID1A / RFU, ZNF146 / Fold change vs veh, ZNF146 / RFU, ZNF330 / Fold change vs veh, ZNF330 / RFU, GPN3 / Fold change vs veh, GPN3 / RFU, C9orf123 / Fold change vs veh, C9orf123 / RFU, N4BP2L2 / Fold change vs veh, N4BP2L2 / RFU, ARFIP1 / Fold change vs veh, ARFIP1 / RFU, FAM179B / Fold change vs veh, FAM179B / RFU, BCL10 / Fold change vs veh, BCL10 / RFU, UHRF1BP1L / Fold change vs veh, UHRF1BP1L / RFU, BET1 / Fold change vs veh, BET1 / RFU, CNOT2 / Fold change vs veh, CNOT2 / RFU, ZNF268 / Fold change vs veh, ZNF268 / Fold change vs veh, ZNF507 / RFU, DGCR2 / Fold change vs veh, DGCR2 / RFU, WDSUB1 / Fold change vs veh, WDSUB1 / Fold change vs veh, HSP90B1 /// MIR3652 / RFU, ADSS / Fold change vs veh, ADSS / RFU, GK / Fold change vs veh, GK / RFU, ZNF148 / Fold change vs veh, ZNF148 / RFU, TAF9 / Fold change vs veh, TAF9 / RFU, SLC1A5 / Fold change vs veh, SLC1A5 / RFU, SLMO2 / Fold change vs veh, SLMO2 / RFU, ABCC4 / Fold change vs veh, ABCC4 / RFU, LOC101060439 /// RAP1B / Fold change vs veh, LOC101060439 /// RAP1B / RFU, RFX7 / Fold change vs veh, RFX7 / RFU, GTPBP10 / Fold change vs veh, GTPBP10 / RFU, CNEP1R1 / Fold change vs veh, CNEP1R1 / RFU, BIVM-ERCC5 /// ERCC5 / Fold change vs veh, BIVM-ERCC5 /// ERCC5 / RFU, ILF3 / Fold change vs veh, ILF3 / RFU 11762660_at / Fold change /veh 11762660_at / RFU VCAN (11757783_s_at) / Fold change /veh VCAN (11757783_s_at) / RFU DDX43 (11728927_at) / Fold change /veh DDX43 (11728927_at) / RFU KRT8 (11758188_x_at) / Fold change /veh KRT8 (11758188_x_at) / RFU NKD1 (11759106_at) / Fold change /veh NKD1 (11759106_at) / RFU SRD5A1 (11742802_a_at) / Fold change /veh SRD5A1 (11742802_a_at) / RFU TPSAB1 /// TPSB2 (11721975_s_at) / Fold change /veh TPSAB1 /// TPSB2 (11721975_s_at) / RFU GSTM3 (11746129_a_at) / Fold change /veh GSTM3 (11746129_a_at) / RFU IL23R (11737362_x_at) / Fold change /veh IL23R (11737362_x_at) / RFU TMEM51 (11727254_a_at) / Fold change /veh TMEM51 (11727254_a_at) / RFU PIWIL2 (11732686_x_at) / Fold change /veh PIWIL2 (11732686_x_at) / RFU ORM1 (11744905_x_at) / Fold change /veh ORM1 (11744905_x_at) / RFU CCDC152 (11743942_at) / Fold change /veh CCDC152 (11743942_at) / RFU ECM1 (11717891_a_at) / Fold change /veh ECM1 (11717891_a_at) / RFU IL23R (11748794_a_at) / Fold change /veh IL23R (11748794_a_at) / RFU TNFAIP8L3 (11732012_x_at) / Fold change /veh TNFAIP8L3 (11732012_x_at) / RFU MBOAT4 (11741988_at) / Fold change /veh MBOAT4 (11741988_at) / RFU 11764193_at / Fold change /veh 11764193_at / RFU TMEM53 (11763286_at) / Fold change /veh TMEM53 (11763286_at) / RFU MAGEB2 (11727129_at) / Fold change /veh MAGEB2 (11727129_at) / RFU TMEM200A (11744735_a_at) / Fold change /veh TMEM200A (11744735_a_at) / RFU CCDC152 (11751479_a_at) / Fold change /veh CCDC152 (11751479_a_at) / RFU FAM211A (11726209_a_at) / Fold change /veh FAM211A (11726209_a_at) / RFU RGS16 (11746705_a_at) / Fold change /veh RGS16 (11746705_a_at) / RFU VCAN (11755009_s_at) / Fold change /veh VCAN (11755009_s_at) / RFU RHOB (11743442_s_at) / Fold change /veh RHOB (11743442_s_at) / RFU RGS16 (11720943_a_at) / Fold change /veh RGS16 (11720943_a_at) / RFU RGS16 (11720944_at) / Fold change /veh RGS16 (11720944_at) / RFU, VPS4B / Fold change vs veh, VPS4B / RFU, CREB1 / Fold change vs veh, CREB1 / RFU, DNAJC13 / Fold change vs veh, DNAJC13 / RFU, GNAQ / Fold change vs veh, GNAQ / RFU, CDK5R1 / Fold change vs veh, CDK5R1 / RFU, ZRANB3 / Fold change vs veh, ZRANB3 / RFU, CUL4A / Fold change vs veh, CUL4A / RFU, CCNY / Fold change vs veh, CCNY / RFU, UFL1 / Fold change vs veh, UFL1 / RFU, COG3 / Fold change vs veh, COG3 / RFU, DIAPH2 / Fold change vs veh, DIAPH2 / RFU, SKA2 / Fold change vs veh, SKA2 / RFU, AFF3 / Fold change vs veh, AFF3 / RFU, LMF1 / Fold change vs veh, LMF1 / RFU, IPO11 / Fold change vs veh, IPO11 / RFU, DFFB / Fold change vs veh, DFFB / RFU, FOXP1 / Fold change vs veh, FOXP1 / RFU, CARD8 / Fold change vs veh, CARD8 / RFU, STRN3 / Fold change vs veh, STRN3 / RFU, ADK / Fold change vs veh, ADK / RFU, RASSF2 / Fold change vs veh, RASSF2 / RFU, WIPF1 / Fold change vs veh, WIPF1 / RFU, LARP1B / Fold change vs veh, LARP1B / RFU, RASA1 / Fold change vs veh, RASA1 / RFU, RB1 / Fold change vs veh, RB1 / RFU, PPFIA1 / Fold change vs veh, PPFIA1 / RFU, MAT2A / Fold change vs veh, MAT2A / RFU, CCT5 / Fold change vs veh, CCT5 / RFU, WDR92 / Fold change vs veh, WDR92 / RFU, CUX1 / Fold change vs veh, CUX1 / RFU, TTC7A / Fold change vs veh, TTC7A / RFU, TMEM135 / Fold change vs veh, TMEM135 / RFU, DEPTOR / Fold change vs veh, DEPTOR / RFU, CPM / Fold change vs veh, CPM / RFU, DNAJB6 / Fold change vs veh, DNAJB6 / RFU, CACNA2D3 / Fold change vs veh, CACNA2D3 / RFU, DTX4 / Fold change vs veh, DTX4 / RFU, TFCP2 / Fold change vs veh, TFCP2 / RFU, GMCL1 /// GMCL1P1 / Fold change vs veh, GMCL1 /// GMCL1P1 / RFU, AEBP2 / Fold change vs veh, AEBP2 / RFU, SNHG1 /// SNORD22 /// SNORD25 /// SNORD26 /// SNORD27 /// SNORD28 /// SNORD29 /// SNORD31 / Fold change vs veh, SNHG1 /// SNORD22 /// SNORD25 /// SNORD26 /// SNORD27 /// SNORD28 /// SNORD29 /// SNORD31 / Fold change (Aza/veh), C12orf56 (ProbeSet 11735607_a_at) / Fold change (ACY-1035/veh), C12orf56 (ProbeSet 11735607_a_at) / Fold change (Aza/veh), FGFR1OP (ProbeSet 11751329_s_at) / Fold change (ACY-1035/veh), FGFR1OP (ProbeSet 11751329_s_at) / Fold change (Aza/veh), VPS36 (ProbeSet 11739960_a_at) / Fold change (ACY-1035/veh), VPS36 (ProbeSet 11739960_a_at) / RFU SYPL1 (11715823_x_at) / Fold change /veh SYPL1 (11715823_x_at) / RFU IGFBP7 (11715501_s_at) / Fold change /veh IGFBP7 (11715501_s_at) / RFU REEP3 (11722064_at) / Fold change /veh REEP3 (11722064_at) / RFU IGLL1 (11728026_x_at) / Fold change /veh IGLL1 (11728026_x_at): dose or concentration left out as unconfirmed
Settings: MV-4-11 cells, 48 hours

Nc1ccc(-c2cccs2)cc1NC(=O)c1ccc2c(c1)cc(C1CC1)n2CCN1CCOCC1 [ACY-1035]
RFU TUBB4B (11761932_at): 19.33 RFU
